Experimental data taken from ChEMBL document CHEMBL1201862, “PubChem BioAssay data set” (2004).
One block for each compound: values may come before it. Calls of active or inactive are those of the source.

Assays:
[1] = target: Serine/threonine-protein phosphatase PP1-alpha catalytic subunit (Homo sapiens, UniProt P62136); assay: PP1 phosphatase inhibitors, dose response, biochemical, fluorescence (AID 2403);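 also: phosphatase turnover of OMFP into fluorescent 3-O-methylfluorescein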
[2] = target: T1, Serine/threonine-protein phosphatase (Homo sapiens, UniProt Q9BPW0); assay: Counterscreen for inhibitors of PP1: fluorescence-based biochemical high throughput dose response assay to identify inhibitors of Protein Phosphatase 5 (PP5). [Related pubchem assays: 2034 (Summary (PP5 inhibitors)), 1987 (PP5 inhibitors in singlate), 2235 (PP1 inhibitors in singlate)]
T1 sequence (Q9BPW0 whole entry): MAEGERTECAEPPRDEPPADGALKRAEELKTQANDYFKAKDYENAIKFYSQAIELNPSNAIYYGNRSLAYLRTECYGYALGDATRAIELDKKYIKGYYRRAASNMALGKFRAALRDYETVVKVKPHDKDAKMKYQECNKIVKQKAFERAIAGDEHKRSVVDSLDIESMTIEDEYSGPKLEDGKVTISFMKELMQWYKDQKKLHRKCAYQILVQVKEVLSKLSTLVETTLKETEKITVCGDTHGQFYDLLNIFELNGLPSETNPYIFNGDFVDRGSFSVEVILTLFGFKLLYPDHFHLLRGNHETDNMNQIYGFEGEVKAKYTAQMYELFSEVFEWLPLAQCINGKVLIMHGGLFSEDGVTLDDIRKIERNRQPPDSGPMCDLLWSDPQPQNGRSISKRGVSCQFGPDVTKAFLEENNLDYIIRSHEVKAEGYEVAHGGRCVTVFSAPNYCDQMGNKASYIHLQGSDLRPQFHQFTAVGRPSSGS

[3] = target: Peroxisome proliferator-activated receptor gamma/Nuclear receptor corepressor 2 (Homo sapiens, UniProt P37231+Q9Y618); assay: Counterscreen for NR2E3 inverse agonists: TR-FRET-based biochemical high throughput dose response assay to identify inverse agonists of the interaction between peroxisome proliferator-activated receptor gamma (PPARg) and nuclear receptor co-repressor 2 (NCOR2).; assay type: functional
[4] = target: Photoreceptor-specific nuclear receptor (Homo sapiens, UniProt Q9Y5X4); assay: NR2E3 inverse agonists, dose response, biochemical, TR-FRET (AID 463256); assay type: functional
[5] = target: Eukaryotic translation initiation factor 4E (Mus musculus, UniProt P63073); assay: eIF4E–eIF4G protein interaction inhibitors, dose response, biochemical, TR-FRET (AID 855); assay type: functional;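 also: potency for disrupting eIF4E binding to eIF4GI seen as loss of FRET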
[6] = target: Hexokinase HKDC1 (Homo sapiens, UniProt Q2TB90); assay: HKDC1 hexokinase inhibitors, dose response, biochemical, W721R variant (AID 504729); assay type: functional
[7] = target: Bcl-2-like protein 10 (Homo sapiens, UniProt Q9HD36); assay: displacers of TR3 peptide from Bcl-B, primary screen, selectivity assay for Bfl-1 inhibitor project, biochemical, fluorescence polarization, FITC-TR3 peptide (AID 748);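 also: fluorescence polarization from a fluorescein-labelled TR3 peptide binding purified Bcl-B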
[8] = target: T2, Calpain-2 catalytic subunit (Sus scrofa, UniProt P43367); assay: pig calpain II inhibitor potency, dose response, biochemical, fluorogenic peptide substrate (AID 1420); assay type: functional
T2 sequence (P43367 whole entry): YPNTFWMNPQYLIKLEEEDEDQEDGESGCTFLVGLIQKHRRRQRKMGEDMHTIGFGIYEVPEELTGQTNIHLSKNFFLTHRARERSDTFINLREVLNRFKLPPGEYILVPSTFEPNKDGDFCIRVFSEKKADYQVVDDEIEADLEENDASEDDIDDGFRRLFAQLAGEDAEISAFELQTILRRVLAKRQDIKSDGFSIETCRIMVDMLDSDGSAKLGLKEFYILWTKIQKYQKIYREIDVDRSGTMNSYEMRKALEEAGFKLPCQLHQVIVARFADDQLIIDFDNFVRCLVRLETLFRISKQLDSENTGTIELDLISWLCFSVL

[9] = target: Genome polyprotein (Hepatitis C virus, UniProt Q2Q167); assay: HCV core protein dimerization inhibitors, dose response, biochemical, TR-FRET (AID 2159); design: species or system Hepacivirus hominis;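 also: blocks dimerization of HCV core protein measured by TR-FRET between tagged core106 pairs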
[10] = target: T3, Voltage-gated N-type calcium channel alpha-1B subunit/Amyloid beta A4 precursor protein-binding family A member 1 (Homo sapiens, UniProt Q00975+Q02410); assay type: protein assay
[11] = target: T3, Voltage-gated N-type calcium channel alpha-1B subunit/Amyloid beta A4 precursor protein-binding family A member 1; assay type: protein assay; remark: listed apart in the source
[12] = target: Induced myeloid leukemia cell differentiation protein Mcl-1 (Homo sapiens, UniProt Q07820); assay type: functional
[13] = target: SUMO E1/E2 (Homo sapiens, UniProt P63279+Q9UBE0+Q9UBT2); assay: SAR analysis of SUMOylation using HTRF in an in-Vitro dose response assay. [Related pubchem assays (depositor defined):AID2006, AID2011, AID2018, AID2069, AID2658]; assay type: functional
[14] = target: T3, Voltage-gated N-type calcium channel alpha-1B subunit/Amyloid beta A4 precursor protein-binding family A member 1; assay: disruptors of Mint-PDZ/N-type channel peptide interaction – biochemical, HTRF, set 2, SAR follow-up (AID 434980); assay type: functional
[15] = target: T3, Voltage-gated N-type calcium channel alpha-1B subunit/Amyloid beta A4 precursor protein-binding family A member 1; assay: disruptors of Mint-PDZ/N-type channel peptide interaction – biochemical, HTRF, SAR follow-up (AID 2489); assay type: functional
[16] = target: T4, Probable nicotinate-nucleotide adenylyltransferase (Staphylococcus aureus (strain N315), UniProt P65502); assay type: functional, Staphylococcus aureus subsp. aureus N315;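 as to IC50 Mean: confirmatory dose-response retesting of NadD inhibitor hits first found in an ultra-high-throughput screen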
[17] = target: T4, Probable nicotinate-nucleotide adenylyltransferase; assay type: functional, Staphylococcus aureus subsp. aureus N315; conditions: read-out: IC50_Mean
[18] = target: Dual specificity protein phosphatase 3 (Homo sapiens, UniProt P51452); assay: VHR1 inhibitor Ki determination, SAR follow-up, biochemical, colorimetric (AID 2004)
[19] = target: T5, Caspase-3 (Homo sapiens, UniProt P42574); assay: procaspase-3 activation potency of dual hits, dose response, counter-screen for dual procaspase-3/7 activator project, biochemical, absorbance, PC-3 D3A mutant (AID 504328)
T5 sequence (P42574 whole entry): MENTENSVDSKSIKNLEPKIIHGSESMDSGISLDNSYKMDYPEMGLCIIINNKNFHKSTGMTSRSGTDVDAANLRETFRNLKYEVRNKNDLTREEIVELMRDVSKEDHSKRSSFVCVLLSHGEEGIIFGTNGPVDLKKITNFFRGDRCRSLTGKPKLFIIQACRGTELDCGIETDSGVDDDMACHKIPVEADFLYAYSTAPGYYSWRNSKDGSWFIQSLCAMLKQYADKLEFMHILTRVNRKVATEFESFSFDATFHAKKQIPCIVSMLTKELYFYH

[20] = target: Caspase-7 (Homo sapiens, UniProt P55210); assay: procaspase-7 activators, dose response, dual procaspase-3/-7 activator project, biochemical, absorbance, human (AID 504330)

T3 sequence (Q00975 whole entry): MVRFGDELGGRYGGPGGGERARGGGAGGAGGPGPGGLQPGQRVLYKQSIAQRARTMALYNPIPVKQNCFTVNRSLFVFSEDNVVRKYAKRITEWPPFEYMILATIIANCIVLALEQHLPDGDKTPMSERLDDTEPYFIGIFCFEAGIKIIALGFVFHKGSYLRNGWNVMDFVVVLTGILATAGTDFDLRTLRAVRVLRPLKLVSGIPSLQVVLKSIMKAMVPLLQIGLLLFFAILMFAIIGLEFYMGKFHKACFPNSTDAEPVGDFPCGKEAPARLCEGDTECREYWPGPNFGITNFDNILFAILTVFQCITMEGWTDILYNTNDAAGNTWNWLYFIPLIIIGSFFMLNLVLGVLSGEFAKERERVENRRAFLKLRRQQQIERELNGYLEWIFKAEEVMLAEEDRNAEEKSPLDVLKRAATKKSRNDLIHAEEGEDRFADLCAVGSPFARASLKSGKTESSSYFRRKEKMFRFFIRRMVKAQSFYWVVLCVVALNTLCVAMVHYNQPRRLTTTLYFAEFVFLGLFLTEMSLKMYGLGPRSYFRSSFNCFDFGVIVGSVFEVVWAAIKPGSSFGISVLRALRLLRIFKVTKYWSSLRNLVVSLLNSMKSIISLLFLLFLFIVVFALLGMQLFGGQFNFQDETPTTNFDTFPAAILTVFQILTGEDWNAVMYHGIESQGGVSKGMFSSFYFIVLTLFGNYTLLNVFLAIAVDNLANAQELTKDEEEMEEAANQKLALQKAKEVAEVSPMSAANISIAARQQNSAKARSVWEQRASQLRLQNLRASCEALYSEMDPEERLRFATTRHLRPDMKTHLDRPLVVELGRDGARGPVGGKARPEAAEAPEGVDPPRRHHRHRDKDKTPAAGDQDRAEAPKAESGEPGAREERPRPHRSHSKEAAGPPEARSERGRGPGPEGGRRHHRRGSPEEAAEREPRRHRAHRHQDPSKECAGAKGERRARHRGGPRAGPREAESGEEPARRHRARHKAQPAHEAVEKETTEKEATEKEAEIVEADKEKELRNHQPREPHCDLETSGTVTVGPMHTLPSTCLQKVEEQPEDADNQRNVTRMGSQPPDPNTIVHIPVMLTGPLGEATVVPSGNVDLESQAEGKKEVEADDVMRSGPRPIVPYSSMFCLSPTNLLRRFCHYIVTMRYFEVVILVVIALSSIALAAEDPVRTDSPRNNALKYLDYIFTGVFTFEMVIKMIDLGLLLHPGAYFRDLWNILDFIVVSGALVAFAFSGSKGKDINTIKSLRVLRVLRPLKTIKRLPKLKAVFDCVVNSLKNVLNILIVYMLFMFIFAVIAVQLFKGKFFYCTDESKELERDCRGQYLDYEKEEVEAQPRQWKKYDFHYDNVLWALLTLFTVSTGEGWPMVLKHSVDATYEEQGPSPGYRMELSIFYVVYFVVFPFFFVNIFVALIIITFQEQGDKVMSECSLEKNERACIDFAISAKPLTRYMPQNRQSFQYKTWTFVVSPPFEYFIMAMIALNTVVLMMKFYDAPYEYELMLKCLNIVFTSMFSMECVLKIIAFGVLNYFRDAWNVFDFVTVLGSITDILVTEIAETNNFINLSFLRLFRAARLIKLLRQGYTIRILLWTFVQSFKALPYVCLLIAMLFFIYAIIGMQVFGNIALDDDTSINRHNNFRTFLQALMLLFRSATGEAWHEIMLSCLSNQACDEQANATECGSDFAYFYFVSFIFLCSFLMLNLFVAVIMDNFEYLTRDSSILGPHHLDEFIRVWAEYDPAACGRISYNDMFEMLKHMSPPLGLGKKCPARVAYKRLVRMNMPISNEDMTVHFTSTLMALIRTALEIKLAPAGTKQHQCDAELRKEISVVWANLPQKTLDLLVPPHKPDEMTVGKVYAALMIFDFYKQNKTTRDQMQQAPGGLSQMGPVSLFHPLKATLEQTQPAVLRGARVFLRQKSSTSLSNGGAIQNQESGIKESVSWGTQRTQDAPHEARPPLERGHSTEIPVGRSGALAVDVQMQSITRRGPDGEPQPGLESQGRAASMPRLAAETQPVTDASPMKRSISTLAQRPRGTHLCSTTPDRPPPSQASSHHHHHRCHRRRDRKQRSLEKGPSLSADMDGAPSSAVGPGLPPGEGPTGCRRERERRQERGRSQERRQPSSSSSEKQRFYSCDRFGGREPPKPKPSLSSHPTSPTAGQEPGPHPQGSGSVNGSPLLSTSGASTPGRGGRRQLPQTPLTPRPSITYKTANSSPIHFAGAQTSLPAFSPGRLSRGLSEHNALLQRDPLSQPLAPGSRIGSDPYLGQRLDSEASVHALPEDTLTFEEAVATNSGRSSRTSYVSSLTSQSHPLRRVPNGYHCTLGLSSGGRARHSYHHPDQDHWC
T3 sequence (Q02410 whole entry): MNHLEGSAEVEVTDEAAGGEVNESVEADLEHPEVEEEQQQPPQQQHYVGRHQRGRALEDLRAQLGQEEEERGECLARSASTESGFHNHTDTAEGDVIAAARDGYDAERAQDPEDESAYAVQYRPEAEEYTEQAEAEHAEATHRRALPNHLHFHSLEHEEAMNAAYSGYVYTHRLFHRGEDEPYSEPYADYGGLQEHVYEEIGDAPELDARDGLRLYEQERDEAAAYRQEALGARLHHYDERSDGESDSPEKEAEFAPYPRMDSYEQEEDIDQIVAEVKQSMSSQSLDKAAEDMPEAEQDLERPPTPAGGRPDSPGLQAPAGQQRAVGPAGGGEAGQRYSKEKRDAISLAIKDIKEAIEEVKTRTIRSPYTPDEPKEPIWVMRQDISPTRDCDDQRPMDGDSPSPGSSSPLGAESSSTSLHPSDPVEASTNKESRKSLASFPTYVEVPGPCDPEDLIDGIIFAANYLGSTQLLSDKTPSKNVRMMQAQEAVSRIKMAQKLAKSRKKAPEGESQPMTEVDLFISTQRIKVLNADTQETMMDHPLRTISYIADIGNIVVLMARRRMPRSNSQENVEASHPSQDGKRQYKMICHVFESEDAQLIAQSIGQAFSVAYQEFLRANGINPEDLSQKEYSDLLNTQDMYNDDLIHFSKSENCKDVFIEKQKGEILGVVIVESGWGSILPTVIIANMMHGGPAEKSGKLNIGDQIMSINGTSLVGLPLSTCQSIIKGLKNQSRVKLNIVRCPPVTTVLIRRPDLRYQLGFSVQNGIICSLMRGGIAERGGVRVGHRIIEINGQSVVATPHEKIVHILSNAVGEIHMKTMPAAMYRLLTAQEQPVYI
Chain of Serine/threonine-protein phosphatase PP1-alpha catalytic subunit (P62136 whole entry): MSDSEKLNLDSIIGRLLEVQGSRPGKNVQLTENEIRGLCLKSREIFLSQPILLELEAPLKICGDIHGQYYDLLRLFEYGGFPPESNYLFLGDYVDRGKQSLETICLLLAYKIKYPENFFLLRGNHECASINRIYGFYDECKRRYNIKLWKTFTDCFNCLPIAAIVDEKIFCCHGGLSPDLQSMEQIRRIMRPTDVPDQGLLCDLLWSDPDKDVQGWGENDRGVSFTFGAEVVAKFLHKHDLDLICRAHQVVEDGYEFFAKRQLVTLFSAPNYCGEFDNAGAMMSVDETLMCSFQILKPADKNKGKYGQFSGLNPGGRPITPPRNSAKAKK
Chain of SUMO E1/E2 (Q9UBE0 whole entry): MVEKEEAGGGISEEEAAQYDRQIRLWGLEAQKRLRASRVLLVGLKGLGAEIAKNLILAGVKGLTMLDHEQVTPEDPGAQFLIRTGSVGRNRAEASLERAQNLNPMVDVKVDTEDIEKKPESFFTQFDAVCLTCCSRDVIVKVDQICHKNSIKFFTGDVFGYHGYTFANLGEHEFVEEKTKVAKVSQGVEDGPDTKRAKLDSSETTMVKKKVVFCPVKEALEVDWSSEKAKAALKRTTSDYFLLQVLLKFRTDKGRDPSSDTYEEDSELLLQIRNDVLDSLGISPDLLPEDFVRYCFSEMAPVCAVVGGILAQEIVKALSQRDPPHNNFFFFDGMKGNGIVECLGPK
Chain of SUMO E1/E2 (Q9UBT2 whole entry): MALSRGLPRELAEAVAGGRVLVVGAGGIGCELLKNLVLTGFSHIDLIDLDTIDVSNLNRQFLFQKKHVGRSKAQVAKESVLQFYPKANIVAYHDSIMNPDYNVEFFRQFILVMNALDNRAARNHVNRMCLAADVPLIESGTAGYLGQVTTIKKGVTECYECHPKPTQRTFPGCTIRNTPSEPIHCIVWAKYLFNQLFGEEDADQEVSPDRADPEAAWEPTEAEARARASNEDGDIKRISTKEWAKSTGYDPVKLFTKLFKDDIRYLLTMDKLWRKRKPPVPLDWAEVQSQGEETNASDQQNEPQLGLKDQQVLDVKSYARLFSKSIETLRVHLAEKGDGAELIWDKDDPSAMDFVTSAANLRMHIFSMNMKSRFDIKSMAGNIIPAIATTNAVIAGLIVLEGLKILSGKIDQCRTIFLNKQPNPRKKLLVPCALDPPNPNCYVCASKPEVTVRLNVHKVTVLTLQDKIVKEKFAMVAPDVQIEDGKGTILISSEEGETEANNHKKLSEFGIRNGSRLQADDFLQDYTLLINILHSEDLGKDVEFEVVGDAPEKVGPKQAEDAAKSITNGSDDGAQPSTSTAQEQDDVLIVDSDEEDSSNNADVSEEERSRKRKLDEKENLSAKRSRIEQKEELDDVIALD
Chain of SUMO E1/E2 (P63279 whole entry): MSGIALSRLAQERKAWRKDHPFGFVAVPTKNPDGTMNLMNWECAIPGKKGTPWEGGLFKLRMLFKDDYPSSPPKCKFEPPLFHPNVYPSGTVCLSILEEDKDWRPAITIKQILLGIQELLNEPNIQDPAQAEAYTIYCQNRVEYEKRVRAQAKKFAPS
Chain of Photoreceptor-specific nuclear receptor (Q9Y5X4 whole entry): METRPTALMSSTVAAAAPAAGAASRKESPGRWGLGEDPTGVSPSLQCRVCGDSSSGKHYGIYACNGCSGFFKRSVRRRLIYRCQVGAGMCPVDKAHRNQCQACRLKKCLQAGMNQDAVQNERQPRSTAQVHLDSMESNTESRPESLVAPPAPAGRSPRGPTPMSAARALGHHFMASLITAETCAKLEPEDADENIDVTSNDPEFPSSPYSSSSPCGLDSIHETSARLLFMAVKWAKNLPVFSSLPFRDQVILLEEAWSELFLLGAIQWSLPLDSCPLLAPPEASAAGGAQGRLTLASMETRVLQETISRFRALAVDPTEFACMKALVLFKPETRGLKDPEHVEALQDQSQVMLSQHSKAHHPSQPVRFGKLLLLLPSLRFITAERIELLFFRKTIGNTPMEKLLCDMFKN

SMILES: N#Cc1ccc(CSc2nnc(NC(=O)c3ccc4ncsc4c3)s2)cc1
IC50 [1]: 7.42 µM (active)
IC50 [2]: > 67 µM (not active)
IC50 [3]: 3.79 µM (active)
IC50 [4]: 3.91 µM (active)
IC50 [5]: 13.1 µM (active)
IC50 [6]: 10.4 µM (active)

SMILES: CCN(CC)CCc1c(C)[nH]c(C(=O)OCc2ccccc2)c1C
IC50 [7]: 41.8 µM (active)
IC50 [8]: 14.4 µM (not active)

SMILES: O=Cc1ccc(Oc2ncnc3ccccc23)cc1
Ki [18]: 43.7 µM (inactive)

The next lines start with the values.

IC50 [9]: > 49.8 µM (not active)
IC50 [10]: 2.59 µM (active)
IC50 [11]: 3.76 µM (active)
IC50 [12]: 2.29 µM (active)
IC50 [13]: 19.4 µM (active)
IC50 [14]: 17.7 µM (active)
IC50 [15]: 15 µM (active)
IC50 [16]: 8.76 µM (active)
IC50 [17]: 28.1 µM (active)
SMILES: COc1ccc(NC(=O)c2cc(-c3ccco3)nc3ccccc23)cc1S(=O)(=O)N1CCOCC1

EC50 [19]: > 85.3 µM (inactive)
EC50 [20]: > 85.3 µM (inactive)
SMILES: COc1ccc(-c2cc(C(=O)OC3CCOC3=O)c3ccccc3n2)cc1 (stereo not given)
